Reference: paper PMC9713482, “Discovery of (R)-2-amino-3-triazolpropanoic acid derivatives as NMDA receptor glycine site agonists with GluN2 subunit-specific activity” (Frontiers in Chemistry, 2022)

Key:
Assay in all cases: cell-based
GluN1/2B [1] = biological target: T1, GluN1/2B (Rattus norvegicus, UniProt P35439); parameters: species or system Xenopus laevis oocytes; two-electrode voltage-clamp recording of NMDA receptor agonist responses with 300 uM glutamate, relative to maximal glycine response; settings: Oocyte; 300 uM glutamate; read-out: % activation
T1 construct: gene Grin1; full-length subunits co-expressed from cRNA (1:2) in Xenopus laevis oocytes; GluN2B ORF altered only silently; heterotetramer; with Glutamate receptor ionotropic, NMDA 2B
Experimental: (§1) Oocytes were injected with cRNAs for GluN1 and GluN2 subunits at a 1:2 ratio, and incubated as previously described ([Hansen et al., 2013]). The injected oocytes were used for two-electrode voltage-clamp recordings at room temperature (21–23°C) after 2–4 days of expression. as previously described ([Hansen et al., 2013]). The holding potential was −40 mV in all recordings. The recording solution was comprised of (in mM) 90 NaCl, 1 KCl, 10 HEPES, 0.5 BaCl2 and 0.01 EDTA (pH 7.4). For experiments with GluN1/2A or GluN1/2B receptors, the oocytes were injected at least 10 min before recordings with 50 mM BAPTA (30–50 nL) to minimize use-dependent increases in response amplitudes ([Williams, 1993]). Compounds were dissolved as 20–100 mM stock solutions in DMSO, and DMSO concentrations were constant in all recording solutions and never exceeded 1%. GraphPad Prism (GraphPad Software, La Jolla, CA) was used to analyze agonist concentration-response data. Briefly, the data for each oocyte were fitted to the following Hill equation, I = Rmax/(1 + 10^((logEC50-log [A])*nH)). […] The pharmacological properties of analogues 13a-j and 16 were determined with two-electrode voltage-clamp recordings of responses from recombinant NMDA receptor subtypes (Table 1; Figure 4). Compound 13f was identified as agonist with lower maximal response relative to glycine (Rmax) at GluN1/2A (47%) and GluN1/2B (23%), but Rmax similar to glycine at GluN1/2C (94%) and GluN1/2D (96%).

GluN1/2C [2] = biological target: T2, GluN1/2C (Rattus norvegicus, UniProt P35439); parameters: species or system Xenopus laevis oocytes; two-electrode voltage-clamp recording of NMDA receptor agonist responses with 300 uM glutamate, relative to maximal glycine response; settings: Oocyte; 300 uM glutamate; read-out: % activation
T2 construct: gene Grin1; full-length subunits co-expressed from cRNA (1:2) in Xenopus laevis oocytes; heterotetramer (human Q14957 was used only for modelling); with Glutamate receptor ionotropic, NMDA 2C
Experimental: as §1

GluN1/2D [3] = biological target: T3, GluN1/2D (Rattus norvegicus, UniProt P35439); parameters: species or system Xenopus laevis oocytes; two-electrode voltage-clamp recording of NMDA receptor agonist responses with 300 uM glutamate, relative to maximal glycine response; settings: Oocyte; 300 uM glutamate; read-out: % activation
T3 construct: gene Grin1; full-length subunits co-expressed from cRNA (1:2) in Xenopus laevis oocytes; heterotetramer; with Glutamate receptor ionotropic, NMDA 2D
Experimental: as §1

GluN1/2A = biological target: T4, GluN1/2A (Rattus norvegicus, UniProt P35439); parameters: species or system Xenopus laevis oocytes; Two-electrode voltage-clamp concentration-response of glycine-site agonists with saturating glutamate; efficacy relative to 100 uM glycine; settings: Oocyte; fitted maximum relative to 100 uM glycine, saturating glutamate; read-out: Rel. efficacy (%) / 99.6672727273 / 96.0542857143
T4 construct: gene Grin1; full-length subunits co-expressed from cRNA (GluN1:GluN2 1:2) in Xenopus laevis oocytes; heterotetramer; glycine site in GluN1; with Glutamate receptor ionotropic, NMDA 2A
Description: (§2) For expression in Xenopus laevis oocytes purchased from Rob Weymouth (Xenopus 1, Dexter, MI), cDNAs encoding rat NMDA receptor subunits, GluN1-1a (Genbank accession number U11418 and U08261), GluN2A (D13211), GluN2B (U11419), GluN2C (M91563), and GluN2D (L31611), were used to produce cRNAs using the mMessage mMachine kit (Ambion, Life Technologies, Paisley, United Kingdom) according to the manufacturer’s protocol. The open reading frame of the GluN2B subunit was altered without changing the amino acid sequence to remove a termination site for the T7 RNA polymerase used to synthesize cRNA ([Hansen et al., 2014]). Oocytes were injected with cRNAs for GluN1 and GluN2 subunits at a 1:2 ratio, and incubated as previously described ([Hansen et al., 2013]). The injected oocytes were used for two-electrode […] recordings at room temperature (21–23°C) after 2–4 days of expression. as previously described ([Hansen et al., 2013]). The holding potential was −40 mV in all recordings. The recording solution was comprised of (in mM) 90 NaCl, 1 KCl, 10 HEPES, 0.5 BaCl2 and 0.01 EDTA (pH 7.4). For experiments with GluN1/2A or GluN1/2B receptors, the oocytes were injected at least 10 min before recordings with 50 mM BAPTA (30–50 nL) to minimize use-dependent increases in response amplitudes ([Williams, 1993]). Compounds were dissolved as 20–100 mM stock solutions in DMSO, and DMSO concentrations were constant in all recording solutions and never exceeded 1%. GraphPad Prism (GraphPad Software, La Jolla, CA) was used to analyze agonist concentration-response data. Briefly, the data for each oocyte were fitted to the following Hill equation, I = Rmax/(1 + 10^((logEC50-log [A])*nH)).

GluN1/2B [4] = biological target: T1, GluN1/2B; parameters: species or system Xenopus laevis oocytes; Two-electrode voltage-clamp concentration-response of glycine-site agonists with saturating glutamate; efficacy relative to 100 uM glycine; settings: Oocyte; fitted maximum relative to 100 uM glycine, saturating glutamate; read-out: Rel. efficacy (%) / 100 / 100.0775
Description: as §2

GluN1/2C [5] = biological target: T2, GluN1/2C; parameters: species or system Xenopus laevis oocytes; Two-electrode voltage-clamp concentration-response of glycine-site agonists with saturating glutamate; efficacy relative to 100 uM glycine; settings: Oocyte; fitted maximum relative to 100 uM glycine, saturating glutamate; read-out: Rel. efficacy (%) / 100 / 111.08
Description: as §2

GluN1/2D [6] = biological target: T3, GluN1/2D; parameters: species or system Xenopus laevis oocytes; Two-electrode voltage-clamp concentration-response of glycine-site agonists with saturating glutamate; efficacy relative to 100 uM glycine; settings: Oocyte; fitted maximum relative to 100 uM glycine, saturating glutamate; read-out: Rel. efficacy (%) / 100 / 92.671
Description: as §2

Row | SMILES | activity at 100 µM (GluN1/2B [1]) [%] | activity at 100 µM (GluN1/2C [2]) [%] | activity at 100 µM (GluN1/2D [3]) [%] | Emax (GluN1/2A) [%] | Emax (GluN1/2B [4]) [%] | Emax (GluN1/2C [5]) [%] | Emax (GluN1/2D [6]) [%]
1 | N[C@H](Cn1cc(CCO)nn1)C(=O)O [13a, (R)-2-Amino-3-(4-(2-hydroxyethyl)-1H-1,2,3-triazol-1-yl)propanoic acid] | 6.2 | 22 | 34 | – | – | – | –
2 | N[C@H](Cn1cc(-c2cccnc2)nn1)C(=O)O [13g, (R)-2-Amino-3-(4-(pyridin-3-yl)-1H-1,2,3-triazol-1-yl)propanoic acid] | – | – | – | 65.5 | 55.7 | 96.9 | 87.5
3 | N[C@H](Cn1cc(-c2ccsc2)nn1)C(=O)O [13i, (R)-2-Amino-3-(4-(thiophen-3-yl)-1H-1,2,3-triazol-1-yl)propanoic acid] | – | – | – | 56.4 | 46.3 | 81.9 | 81.8
4 | Nc1ccc(-c2cn(C[C@@H](N)C(=O)O)nn2)cc1 [13f, (R)-2-Amino-3-(4-(4-aminophenyl)-1H-1,2,3-triazol-1-yl)propanoic acid] | – | – | – | 47.3 | 22.8 | 93.9 | 96.5
5 | CCCCc1cn(C[C@@H](N)C(=O)O)nn1 [13b, (R)-2-Amino-3-(4-butyl-1H-1,2,3-triazol-1-yl)propanoic acid] | 9.2 | 27 | 32 | – | – | – | –
6 | N[C@H](Cn1cc(Cc2ccccc2)nn1)C(=O)O [13c, (R)-2-Amino-3-(4-benzyl-1H-1,2,3-triazol-1-yl)propanoic acid] | – | 12 | 5.9 | – | – | – | –
